Some test systems named below: OVCAR-3 ovarian; SNB-75 CNS; EKVX NSCLC; HCT-15 colon; M14 melanoma; HCC-2998 colon; UO-31 renal; PC-3 prostate; DU-145 prostate; HL-60(TB) leukemia.
Common to all, as to assay: NCI anticancer screen, dose series, 48 h

SMILES strings stand for the structures.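 Dose response: 5 concentrations. Exposure: 48 h. Format: 96-well plates. Endpoint: linear interpolation; highest concentration if not reached. The concentration for 50% growth inhibition is given as GI50. TGI: concentration producing complete growth inhibition.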

In the case of `Cc1ccc(-c2csc(NC(=O)N3CCN(c4cc5c(cc4F)c(=O)c(C(=O)O)cn5C4CC4)CC3)n2)cc1`, the GI50 is 0.492 µM in the assay on OVCAR-3 ovarian; 0.289 µM in the assay with SNB-75 CNS; 1.49 µM in the assay with EKVX NSCLC; 0.417 µM in the assay with HCT-15 colon; 1.2 µM in the assay on M14 melanoma; 0.699 µM in the assay with HCC-2998 colon. The GI50 in the assay with UO-31 renal was 0.36 µM; with PC-3 prostate, 0.454 µM; in the assay with DU-145 prostate, 0.428 µM; with HL-60(TB) leukemia, 0.796 µM. Further, the TGI in the assay with OVCAR-3 ovarian is 18.7 µM; in the assay on SNB-75 CNS, 9.55 µM; with EKVX NSCLC, above 100 µM; in the assay on HCT-15 colon, above 100 µM; in the assay on M14 melanoma, above 100 µM; in the assay on HCC-2998 colon, above 100 µM. In addition, the TGI was above 100 µM with UO-31 renal, above 100 µM with PC-3 prostate, above 100 µM with DU-145 prostate and 4.51 µM with HL-60(TB) leukemia.
For the compound `Cc1ccc(-c2nc3nc(-c4ccccc4)nc(N4CCNCC4)c3o2)cc1`, the GI50 is 0.187 µM in the assay with OVCAR-3 ovarian; 1.58 µM in the assay on SNB-75 CNS; 1.74 µM with EKVX NSCLC; 0.291 µM in the assay on HCT-15 colon; 1.77 µM in the assay on M14 melanoma; 1.4 µM with HCC-2998 colon. In addition, the GI50 in the assay on UO-31 renal is 0.513 µM; in the assay with PC-3 prostate, 0.947 µM; in the assay with DU-145 prostate, 0.508 µM; with HL-60(TB) leukemia it was 0.215 µM. In addition, the TGI in the assay with OVCAR-3 ovarian came out at 0.352 µM; in the assay on SNB-75 CNS, 3.02 µM; in the assay on EKVX NSCLC it was 3.24 µM; with HCT-15 colon, 0.834 µM; with M14 melanoma, 3.25 µM; in the assay on HCC-2998 colon, 2.86 µM. Besides, the TGI with UO-31 renal worked out at 1.01 µM; in the assay with PC-3 prostate, 2.46 µM; in the assay on DU-145 prostate, 1.73 µM; in the assay with HL-60(TB) leukemia it was 0.463 µM.
`NCCN.O=C([O-])CN1CCOCC1.[OH-].[Pt+4]`: the GI50 with OVCAR-3 ovarian, with SNB-75 CNS, in the assay on EKVX NSCLC, with HCT-15 colon, in the assay with M14 melanoma and with HCC-2998 colon was above 100 µM in each case. Also, the GI50 in the assay with UO-31 renal was above 100 µM; with PC-3 prostate it was above 100 µM; in the assay on DU-145 prostate it was above 100 µM; in the assay with HL-60(TB) leukemia, 15.8 µM. Besides, the TGI in the assay on OVCAR-3 ovarian, in the assay with SNB-75 CNS, with EKVX NSCLC, in the assay with HCT-15 colon, in the assay on M14 melanoma and with HCC-2998 colon was above 100 µM in each case. Also, the TGI in the assay on UO-31 renal, in the assay with PC-3 prostate, in the assay on DU-145 prostate and in the assay with HL-60(TB) leukemia was above 100 µM each time.
On to `O=C1C(SCCO)=C(SCCO)C(=O)N1c1ccc(-c2ccccc2)cc1`, for which the GI50 in the assay on OVCAR-3 ovarian is 0.897 µM; in the assay with SNB-75 CNS, 4.1 µM; in the assay with EKVX NSCLC it was 9.5 µM; with HCT-15 colon, 2.13 µM; in the assay with M14 melanoma it was 2.31 µM; in the assay on HCC-2998 colon it was 3.65 µM. In addition, the GI50 in the assay with UO-31 renal was 1.54 µM; with PC-3 prostate, 1.07 µM; with DU-145 prostate, 3.59 µM; in the assay on HL-60(TB) leukemia it was 18.7 µM. For the same compound, the TGI with OVCAR-3 ovarian worked out at 2.32 µM; in the assay with SNB-75 CNS, 11.1 µM; in the assay with EKVX NSCLC it was 23.3 µM; in the assay on HCT-15 colon it was 5.31 µM; in the assay with M14 melanoma it was 7.64 µM; with HCC-2998 colon it was 9.87 µM. Further, the TGI amounted to 2.97 µM with UO-31 renal, 7.57 µM with PC-3 prostate, 8.94 µM with DU-145 prostate and 51.6 µM in the assay with HL-60(TB) leukemia.
With `O=C1C(c2cnc3ccccc3n2)=C(O)c2ccccc21`, the TGI in the assay on OVCAR-3 ovarian is above 100 µM; with SNB-75 CNS, 79.9 µM; with EKVX NSCLC, above 100 µM; in the assay with HCT-15 colon, 9.75 µM; with M14 melanoma, above 100 µM; in the assay on HCC-2998 colon, above 100 µM. Further, the TGI in the assay on UO-31 renal was above 100 µM; in the assay on PC-3 prostate, above 85.7 µM; in the assay with DU-145 prostate, above 100 µM; in the assay with HL-60(TB) leukemia, above 88.5 µM.
Consider `OCCn1cnc2c(SCc3ccccc3)ncnc21`, for which the TGI with OVCAR-3 ovarian, in the assay on SNB-75 CNS, in the assay on EKVX NSCLC, in the assay with HCT-15 colon, with M14 melanoma and in the assay with HCC-2998 colon was above 100 µM throughout. Also, the TGI in the assay on UO-31 renal, in the assay on PC-3 prostate, with DU-145 prostate and with HL-60(TB) leukemia was above 100 µM each time.
`CN(C)CC1CCC2=C(C1=O)C(c1ccc(Cl)c(Cl)c1)C1=C(CCC(CN(C)C)C1=O)O2` (centres undefined): the GI50 with OVCAR-3 ovarian is 1.6 µM; in the assay with SNB-75 CNS, 12.4 µM; in the assay with EKVX NSCLC, 18.2 µM; in the assay with HCT-15 colon, 8.75 µM; in the assay on M14 melanoma it was 9.35 µM; in the assay on HCC-2998 colon it was 0.0835 µM. Also, the figures for the GI50 in the assay on UO-31 renal, with DU-145 prostate and with HL-60(TB) leukemia were 2.78 µM, 2.91 µM and 0.773 µM, respectively. Moreover, the TGI in the assay with OVCAR-3 ovarian was determined as 5.89 µM; with SNB-75 CNS it was 25.8 µM; with EKVX NSCLC it was 34.1 µM; in the assay with HCT-15 colon, 29.2 µM; in the assay with M14 melanoma, 23.4 µM; in the assay with HCC-2998 colon, 14.6 µM. Besides, the TGI in the assay with UO-31 renal came out at 7.17 µM; in the assay on PC-3 prostate, 19.9 µM; with DU-145 prostate it was 9.09 µM; in the assay on HL-60(TB) leukemia, 3.53 µM.

The values above are taken from PubChem BioAssay (NCI).
